# Data as given in ChEMBL document CHEMBL5724696, “Autophagy assay results for EUbOPEN Chemogenomics Library” (2024).
# Where “and” joins values, the source holds several entries; their conditions need not be identical. Equal entries are not always repeated.
# Experiments:
# Format in all cases: functional, Homo sapiens
# TERT-RPE1 = assay: (§1) Here: values are normalized to the negative (DMSO; defined as 0% autophagy induction) and positive (250nM Torin1; mTOR inhibitor; defined as maximal inducer of autophagy = 100%) control compounds and represented as % of autophagy induction. […] The impact of autophagy induction on cells is complex and depends on the affected target. As such, the magnitude of a phenotype may not be equally mirrored in the %-value of autophagy induction and vice versa. The dynamics of the induction may indicate the mode of activation: e.g. activation via phosphorylation or a signaling cascade may occur fast, while activation via transcription factors may take considerably longer. […] Of note, treatment concentrations may be sub-optimal for specific compounds, leading to false negative annotations.; details: Culturing Media DMEM/F12 (1:1), 1 % Penicillin/Streptomycin, 10% Fetal bovin serum Add-On: No, Screening Media Control DMEM/F12 (1:1), Screening Media Samples DMEM/F12 (1:1)
# U2OS [1] = assay: as §1; details: Culturing Media DMEM, 1 % Penicillin/Streptomycin, 10% Fetal bovin serum Add-On: No, Screening Media Control DMEM, Screening Media Samples DMEM
# U2OS [2] = assay: as §1; details: Culturing Media DMEM, 1 % Penicillin/Streptomycin, 10% Fetal bovin serum Add-On: No, Screening Media Control DMEM, Screening Media Samples DMEM; remark: listed apart in the source
# [3] = Compound Concentration 0.5 uM, Timepoint 12 hours
# [4] = Compound Concentration 0.5 uM, Timepoint 24 hours
# [5] = Compound Concentration 0.5 uM, Timepoint 36 hours
# [6] = Compound Concentration 0.5 uM, Timepoint 60 hours
# [7] = Compound Concentration 2 uM, Timepoint 12 hours
# [8] = Compound Concentration 2 uM, Timepoint 24 hours
# [9] = Compound Concentration 2 uM, Timepoint 36 hours
# [10] = Compound Concentration 2 uM, Timepoint 60 hours
# [11] = Compound Concentration 10 uM, Timepoint 12 hours
# [12] = Compound Concentration 10 uM, Timepoint 24 hours
# [13] = Compound Concentration 10 uM, Timepoint 36 hours
# [14] = Compound Concentration 10 uM, Timepoint 60 hours
smiles,measurement,setting,value
COc1ccc(S(=O)(=O)N2c3ccc(Cl)cc3[C@](O)(c3ccccc3Cl)[C@@H]2C(=O)N2CCC[C@H]2C(N)=O)cc1OC [RELCOVAPTAN],autophagy induction,"TERT-RPE1; Compound Concentration 0.5 uM, Timepoint 12 hours, 12 h, 0.5 µM",-0.4521% and -5.349%
same,autophagy induction,"TERT-RPE1; Compound Concentration 0.5 uM, Timepoint 24 hours, 24 h, 0.5 µM",-0.2273% and -4.727%
same,autophagy induction,"TERT-RPE1; Compound Concentration 0.5 uM, Timepoint 36 hours, 36 h, 0.5 µM",-2.897% and -4.661%
same,autophagy induction,"TERT-RPE1; Compound Concentration 0.5 uM, Timepoint 60 hours, 60 h, 0.5 µM",-4.347% and -7.0603%
same,autophagy induction,"TERT-RPE1; Compound Concentration 2 uM, Timepoint 12 hours, 12 h, 2 µM",0.8726% and -2.524%
same,autophagy induction,"TERT-RPE1; Compound Concentration 2 uM, Timepoint 24 hours, 24 h, 2 µM",-1.739% and -2.756%
same,autophagy induction,"TERT-RPE1; Compound Concentration 2 uM, Timepoint 36 hours, 36 h, 2 µM",-2.675% and -2.785%
same,autophagy induction,"TERT-RPE1; Compound Concentration 2 uM, Timepoint 60 hours, 60 h, 2 µM",-4.303% and -2.0726%
same,autophagy induction,"TERT-RPE1; Compound Concentration 10 uM, Timepoint 12 hours, 12 h, 10 µM",0.7279% and 5.088%
same,autophagy induction,"TERT-RPE1; Compound Concentration 10 uM, Timepoint 24 hours, 24 h, 10 µM",4.093% and 9.7265%
same,autophagy induction,"TERT-RPE1; Compound Concentration 10 uM, Timepoint 36 hours, 36 h, 10 µM",6.165% and 16.6943%
same,autophagy induction,"TERT-RPE1; Compound Concentration 10 uM, Timepoint 60 hours, 60 h, 10 µM",11.326% and 28.0498%
same,autophagy induction,U2OS [1]; [3],-0.4488%
same,autophagy induction,U2OS [1]; [4],-3.182%
same,autophagy induction,U2OS [1]; [5],-42.6034%
same,autophagy induction,U2OS [1]; [6],-2.284%
same,autophagy induction,U2OS [1]; [7],-3.799%
same,autophagy induction,U2OS [1]; [8],-4.202%
same,autophagy induction,U2OS [1]; [9],-60.4871%
same,autophagy induction,U2OS [1]; [10],-1.266%
same,autophagy induction,U2OS [1]; [11],4.624%
same,autophagy induction,U2OS [1]; [12],2.3507%
same,autophagy induction,U2OS [1]; [13],-58.7044%
same,autophagy induction,U2OS [1]; [14],-2.271%
same,autophagy induction,U2OS [2]; [3],-8.786%
same,autophagy induction,U2OS [2]; [4],-9.572%
same,autophagy induction,U2OS [2]; [5],-12.5258%
same,autophagy induction,U2OS [2]; [6],-16.7068%
same,autophagy induction,U2OS [2]; [7],-3.79%
same,autophagy induction,U2OS [2]; [8],-9.305%
same,autophagy induction,U2OS [2]; [9],-13.7756%
same,autophagy induction,U2OS [2]; [10],-18.6617%
same,autophagy induction,U2OS [2]; [11],-6.744%
same,autophagy induction,U2OS [2]; [12],-13.3744%
same,autophagy induction,U2OS [2]; [13],-5.479%
same,autophagy induction,U2OS [2]; [14],-4.839%
